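Cells were grown in 96-well plates and exposed to each compound for 48 hours at five concentrations; endpoints were interpolated linearly between bracketing concentrations, or set to the highest concentration if not reached. TGI denotes the concentration required for complete inhibition of growth.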
What was measured:
Assay in all cases: DTP human tumour cell line panel, 48 h
[1] = test system: A549 NSCLC
[2] = test system: KM20L2 colon
[3] = test system: LXFL 529 NSCLC
[4] = test system: RPMI-8226 leukemia
[5] = test system: NCI-H226 lung
[6] = test system: RXF-631 renal
[7] = test system: OVCAR-3 ovarian
[8] = test system: UACC-62 melanoma
[9] = test system: SNB-75 CNS
[10] = test system: RXF 393 renal
[11] = test system: ACHN renal
[12] = test system: HOP-62 NSCLC
[13] = test system: NCI-H522 lung
[14] = test system: SF-268 CNS
[15] = test system: KM12 colon
[16] = test system: UO-31 renal
[17] = test system: A498 renal
[18] = test system: COLO 205 colon
[19] = test system: 786-0 renal
[20] = test system: SK-MEL-28 melanoma
[21] = test system: OVCAR-8 ovarian
[22] = test system: HL-60(TB) leukemia
[23] = test system: DLD-1 colon
[24] = test system: HCT-15 colon
[25] = test system: NCI-H460 lung
[26] = test system: HCT-116 colon
[27] = test system: OVCAR-4 ovarian
[28] = test system: SW-620 colon
[29] = test system: UACC-257 melanoma
[30] = test system: SK-MEL-2 melanoma
[31] = test system: SF-539 CNS
[32] = test system: SK-OV-3 ovarian
[33] = test system: TK-10 renal
[34] = test system: MOLT-4 leukemia
[35] = test system: HOP-18 NSCLC
[36] = test system: HCC-2998 colon
[37] = test system: SNB-78 CNS
[38] = test system: SN12C renal
[39] = test system: M14 melanoma
[40] = test system: M19-MEL melanoma
[41] = test system: U251 CNS
[42] = test system: SK-MEL-5 melanoma
[43] = test system: SNB-19 CNS
[44] = test system: SR leukemia
[45] = test system: MALME-3M melanoma
[46] = test system: IGROV1 ovarian
[47] = test system: CAKI-1 renal
[48] = test system: CCRF-CEM leukemia
[49] = test system: K-562 leukemia
[50] = test system: DMS 273 small cell lung
[51] = test system: NCI-H23 lung
[52] = test system: OVCAR-5 ovarian
[53] = test system: HT29 colon
[54] = test system: EKVX NSCLC
[55] = test system: DMS 114 small cell lung
[56] = test system: LOX IMVI melanoma
[57] = test system: HOP-92 NSCLC
[58] = test system: SF-295 CNS
[59] = test system: XF 498 CNS

SMILES: C#CC[C@]12CC(=O)CC[C@H]1CC(=O)C2
- TGI [1]: > 100 µM
- TGI [2]: > 100 µM
- TGI [3]: > 100 µM
- TGI [4]: > 100 µM
- TGI [5]: > 100 µM
- TGI [6]: > 100 µM
- TGI [7]: > 100 µM
- TGI [8]: > 100 µM
- TGI [9]: > 100 µM
- TGI [10]: > 100 µM
- TGI [11]: > 100 µM
- TGI [12]: > 100 µM
- TGI [13]: > 100 µM
- TGI [14]: > 100 µM
- TGI [15]: > 100 µM
- TGI [16]: > 100 µM
- TGI [17]: > 100 µM
- TGI [18]: > 100 µM
- TGI [19]: > 100 µM
- TGI [20]: > 100 µM
- TGI [21]: > 100 µM
- TGI [22]: > 100 µM
- TGI [23]: > 100 µM
- TGI [24]: > 100 µM
- TGI [25]: > 100 µM
- TGI [26]: > 100 µM
- TGI [27]: > 100 µM
- TGI [28]: > 100 µM
- TGI [29]: > 100 µM
- TGI [30]: > 100 µM
- TGI [31]: > 100 µM
- TGI [32]: > 100 µM
- TGI [33]: > 100 µM
- TGI [34]: > 100 µM
- TGI [35]: > 100 µM
- TGI [36]: > 100 µM
- TGI [37]: > 100 µM
- TGI [38]: > 100 µM
- TGI [39]: > 100 µM
- TGI [40]: > 100 µM
- TGI [41]: > 100 µM
- TGI [42]: > 100 µM
- TGI [43]: > 100 µM
- TGI [44]: > 100 µM
- TGI [45]: > 100 µM
- TGI [46]: > 100 µM
- TGI [47]: > 100 µM
- TGI [48]: > 100 µM
- TGI [49]: > 100 µM
- TGI [50]: > 100 µM

SMILES: CCCCCCCCCCCCCCCCOP(=O)(O)Oc1ccc(/C=C\c2ccc(OP(=O)(O)OCCCCCCCCCCCCCCCC)cc2)cc1
- TGI [1]: > 100 µM
- TGI [2]: > 100 µM
- TGI [3]: > 100 µM
- TGI [4]: 80 µM
- TGI [5]: > 100 µM
- TGI [6]: > 100 µM
- TGI [7]: > 100 µM
- TGI [8]: > 100 µM
- TGI [9]: 80.8 µM
- TGI [10]: 9.1 µM
- TGI [11]: > 100 µM
- TGI [51]: > 100 µM
- TGI [12]: > 100 µM
- TGI [13]: > 100 µM
- TGI [14]: > 100 µM
- TGI [15]: > 100 µM
- TGI [16]: > 100 µM
- TGI [17]: > 100 µM
- TGI [52]: > 100 µM
- TGI [18]: 33.6 µM
- TGI [19]: > 100 µM
- TGI [20]: > 100 µM
- TGI [21]: 56.1 µM
- TGI [22]: 53.1 µM
- TGI [23]: > 100 µM
- TGI [53]: > 100 µM
- TGI [24]: > 100 µM
- TGI [54]: > 100 µM
- TGI [25]: > 100 µM
- TGI [26]: > 100 µM
- TGI [27]: > 100 µM
- TGI [28]: > 100 µM
- TGI [55]: 49.4 µM
- TGI [29]: > 100 µM
- TGI [30]: > 100 µM
- TGI [56]: > 100 µM
- TGI [57]: 67.1 µM
- TGI [32]: > 100 µM
- TGI [33]: 72.4 µM
- TGI [34]: > 100 µM
- TGI [35]: > 100 µM
- TGI [36]: > 100 µM
- TGI [37]: 91.9 µM
- TGI [38]: > 100 µM
- TGI [39]: > 100 µM
- TGI [40]: > 100 µM
- TGI [41]: > 100 µM
- TGI [42]: > 100 µM
- TGI [58]: > 100 µM
- TGI [43]: > 100 µM
- TGI [44]: 47.1 µM
- TGI [45]: > 100 µM
- TGI [46]: > 100 µM
- TGI [47]: > 100 µM
- TGI [48]: 88.7 µM
- TGI [49]: > 100 µM
- TGI [50]: 62.4 µM

SMILES: CC(=O)c1ccc(NC(=O)/C(Cc2ccccn2)=N/NC(=O)C[N+](C)(C)C)cc1
- TGI [1]: > 100 µM
- TGI [2]: > 100 µM
- TGI [3]: > 100 µM
- TGI [4]: > 100 µM
- TGI [5]: > 100 µM
- TGI [6]: > 100 µM
- TGI [7]: > 100 µM
- TGI [8]: > 100 µM
- TGI [9]: > 100 µM
- TGI [10]: > 100 µM
- TGI [11]: > 100 µM
- TGI [51]: > 100 µM
- TGI [12]: > 100 µM
- TGI [13]: > 100 µM
- TGI [14]: > 100 µM
- TGI [15]: > 100 µM
- TGI [16]: > 100 µM
- TGI [17]: > 100 µM
- TGI [52]: > 100 µM
- TGI [18]: > 100 µM
- TGI [19]: > 100 µM
- TGI [20]: > 100 µM
- TGI [21]: > 100 µM
- TGI [22]: > 100 µM
- TGI [23]: > 100 µM
- TGI [53]: > 100 µM
- TGI [24]: > 100 µM
- TGI [54]: > 100 µM
- TGI [25]: > 100 µM
- TGI [26]: > 100 µM
- TGI [27]: > 100 µM
- TGI [28]: > 100 µM
- TGI [55]: > 100 µM
- TGI [29]: > 100 µM
- TGI [30]: > 100 µM
- TGI [56]: > 100 µM
- TGI [31]: > 100 µM
- TGI [32]: > 100 µM
- TGI [33]: > 100 µM
- TGI [34]: > 100 µM
- TGI [35]: > 100 µM
- TGI [36]: > 100 µM
- TGI [37]: > 100 µM
- TGI [38]: > 100 µM
- TGI [39]: > 100 µM
- TGI [40]: > 100 µM
- TGI [41]: > 100 µM
- TGI [42]: > 100 µM
- TGI [58]: > 100 µM
- TGI [43]: > 100 µM
- TGI [44]: > 100 µM
- TGI [45]: > 100 µM
- TGI [46]: > 100 µM
- TGI [47]: > 100 µM
- TGI [48]: > 100 µM
- TGI [49]: > 100 µM
- TGI [50]: > 100 µM

SMILES: CCc1nc2ccccc2c(=O)n1/N=C(\N=Nc1ccc(Cl)cc1)c1ccccc1Cl
- TGI [2]: > 100 µM
- TGI [3]: 85.3 µM
- TGI [6]: > 100 µM
- TGI [8]: > 100 µM
- TGI [10]: 72.5 µM
- TGI [11]: > 100 µM
- TGI [51]: > 100 µM
- TGI [12]: > 100 µM
- TGI [14]: > 100 µM
- TGI [16]: 69.9 µM
- TGI [17]: > 100 µM
- TGI [18]: > 100 µM
- TGI [19]: > 100 µM
- TGI [20]: 80.4 µM
- TGI [21]: > 100 µM
- TGI [59]: 71.6 µM
- TGI [53]: > 100 µM
- TGI [24]: > 100 µM
- TGI [25]: > 100 µM
- TGI [26]: > 100 µM
- TGI [55]: 74.2 µM
- TGI [56]: > 100 µM
- TGI [31]: > 100 µM
- TGI [57]: 64.9 µM
- TGI [32]: > 100 µM
- TGI [33]: > 100 µM
- TGI [34]: 96.4 µM
- TGI [35]: > 100 µM
- TGI [38]: > 100 µM
- TGI [39]: > 100 µM
- TGI [40]: > 100 µM
- TGI [41]: > 100 µM
- TGI [58]: > 100 µM
- TGI [46]: > 100 µM
- TGI [47]: > 100 µM
- TGI [50]: > 100 µM

— PubChem BioAssay (NCI)
